{"source": "paper PMC11413854", "about": "“Reversible Control of Native GluN2B-Containing NMDA Receptors with Visible Light” (ACS Chemical Neuroscience, 2024)", "tested_on": "GluN1/GluN2A/GluN2B triheteromers", "assay": "TEVC on Xenopus oocytes, GluN1/GluN2A/GluN2B triheteromers", "type": "cell-based, rat GluN1, rat GluN2A, mouse GluN2B", "details": "1 µM trans-OptoNAM-3 (dark)", "description": "NMDARs exist as multiple subtypes in the brain that are formed by the combination of two GluN1 and either two identical (diheteromers) or different (triheteromers) GluN2 (GluN2A-D) subunits.[1] We assessed the selectivity of trans-OptoNAM-3 (dark PSS) for the other NMDAR subtypes.\nWe used cDNA coding for rat GluN1–1a (named GluN1 herein) (GenBank: U08261.1), rat GluN2A (GenBank: D13211.1), mouse GluN2B (GenBank: D10651.2), rat GluA1 flop (GenBank: M36418.2), and rat Myc-GluA2(Q)-flip (GenBank: AF164344.1) cloned into pcDNA3-based expression plasmids. GluK2 (GenBank: Z11548.1) corresponds to the fully RNA-edited version.[80] The GluN2B-ΔNTD construct is from ref[45] and GluN2B–N615K is from ref[81]. Single mutants GluN2B-Q110G and GluN1-L135H were from ref[19]. The GluA2 cDNA contains a Myc tag ([…]) fused between the signal peptide and the N-terminus sequences, and the GluA2 subunit is […] for its Q/R/N site (GluA2(Q)) to allow permeation of homomeric GluA2 receptors.[2] cDNAs coding for rat GluN2C (GenBank: M91563.1) and GluN2D subunits (GenBank: L31611.1) were in prK5 plasmids.\nExpression of recombinant NMDA receptors was obtained by oocyte nuclear coinjection of 37 nL of a mixture of cDNAs (at 30 ng/μL) coding for GluN1–1a and various GluN2 subunits (ratio 1:1). The protocol in ref[43] was followed for the expression of GluN1/GluN2A/GluN2B triheteromers. […]", "data": [{"smiles": "c1ccc(/N=N/c2ccc(CCNc3ccncc3)cc2)cc1", "note": "[OptoNAM-3, (E)-N-(4-(Phenyldiazenyl)phenethyl)pyridin-4-amine]", "values": [{"measurement": "inhibition of GluN1/GluN2A/GluN2B triheteromers", "value": 11.404, "unit": "%"}, {"measurement": "inhibition of GluN1/GluN2A/GluN2B triheteromers", "setting": "listed as trans-OptoNAM-3", "value": "11.4% ± 0.9%"}]}]}
